# Results from the supplement of paper PMC5579334.
# Columns and labels:
# HS-PSS [1] = assay: relative IC50 (inflection point of fitted dose-response curve, CellTiter-Glo viability, 72 h; top asymptote may be below 50% inhibition); higher = less potent
# Method in brief: (§1)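 MPNST cell lines and primary human Schwann cells (750–1000 cells per well) went into 384-well plates preprinted with each compound at five concentrations in 10-fold steps. Plates were incubated 72 h at 37 °C, 5% CO2. Viability was read as CellTiter-Glo ATP luminescence, scaled between vehicle and positive-control wells, with duplicates averaged where present. Percent inhibition is at the top concentration; drug sensitivity score and relative IC50 (censored at top concentration) come from four-parameter logistic fits.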
# HSC2 [2] = assay: as above
# Method in brief: as §1
# S462 = assay: as above
# Method in brief: as §1
# STS26T [3] = assay: as above
# Method in brief: as §1
# ST8814 [4] = assay: as above
# Method in brief: as §1
# HSC1 [5] = assay: as above
# Method in brief: as §1
# HS-PSS [6] = assay: relative IC50 (inflection point of fitted dose-response curve, CellTox-Green cytotoxicity, 72 h; top asymptote may be below 50%); higher = less potent
# Method in brief: (§2)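 MPNST cell lines and primary human Schwann cells were incubated 72 h at 37 °C in 384-well plates holding five 10-fold compound dilutions. CellTox-Green was added before seeding at a final 1:1000 dilution and reported fluorescence from DNA released by disrupted cells. Signals were scaled to vehicle and positive-control wells, and cultures failing plate quality control were dropped. Drug sensitivity score and relative IC50 come from four-parameter logistic fits, with IC50 censored at the top concentration.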
# HSC2 [7] = assay: as above
# Method in brief: as §2
# S1507-2 = assay: as above
# Method in brief: as §2
# STS26T [8] = assay: as above
# Method in brief: as §2
# ST8814 [9] = assay: as above
# Method in brief: as §2
# HSC1 [10] = assay: as above
# Method in brief: as §2
# YST-1 = assay: relative IC50 (inflection point of fitted dose-response curve, CellTiter-Glo viability, 72 h; top asymptote may be below 50% inhibition); higher = less potent
# Method in brief: as §1
# HS-Sch-2 = assay: as above
# Method in brief: as §1
SMILES,relative IC50 (HS-PSS [1]) [µM],relative IC50 (HSC2 [2]) [nM],relative IC50 (S462) [nM],relative IC50 (STS26T [3]) [nM],relative IC50 (ST8814 [4]) [nM],relative IC50 (HSC1 [5]) [nM],relative IC50 (HS-PSS [6]) [µM],relative IC50 (HSC2 [7]) [µM],relative IC50 (S1507-2) [µM],relative IC50 (STS26T [8]) [nM],relative IC50 (ST8814 [9]) [µM],relative IC50 (HSC1 [10]) [µM],relative IC50 (YST-1) [nM],relative IC50 (HS-Sch-2) [nM]
CC(C)(C)c1nc(-c2cccc(NS(=O)(=O)c3c(F)cccc3F)c2F)c(-c2ccnc(N)n2)s1 [Dabrafenib],1,63.3,668,72.8,968,220,> 2.5,> 2.5,> 2.5,> 2500,> 2.5,> 2.5,–,–
CCn1c(C(=O)N(C2CC2)C2CC2)cc2c3c(ncn3C)c(Nc3cc(C)n(C)n3)nc21,> 10,> 10000,> 10000,> 10000,> 10000,> 10000,> 10,> 10,> 10,> 10000,> 10,> 10,1590,–
Sc1ncnc2nc[nH]c12 [Mercaptopurine],–,> 10000,1460,1270,193,> 10000,> 10,> 10,> 10,–,> 10,> 10,–,640
CC[C@H](Nc1ncnc2[nH]cnc12)c1nc2cccc(F)c2c(=O)n1-c1ccccc1 [Idelalisib],> 10,> 10000,> 10000,1540,–,> 10000,> 10,0.511,> 10,–,> 10,> 10,1040,> 10000
O=P1(NCCCl)OCCCN1CCCl (stereo not given) [Ifosfamide],> 10,> 10000,> 10000,> 10000,> 10000,> 10000,> 10,> 10,> 10,> 10000,> 10,> 10,–,> 10000
NC(=O)NO [Hydroxyurea],> 100,–,> 100000,> 100000,> 100000,–,> 100,> 100,> 100,> 100000,> 100,> 100,–,–
CNC(=O)c1cc(Oc2ccc(NC(=O)Nc3ccc(Cl)c(C(F)(F)F)c3)c(F)c2)ccn1 [Regorafenib],3.58,2050,1700,1690,1340,2770,> 10,> 10,> 10,–,3.16,> 10,1700,3570
COC(=O)c1ccc2c(c1)NC(=O)/C2=C(\Nc1ccc(N(C)C(=O)CN2CCN(C)CC2)cc1)c1ccccc1 [Nintedanib],3.97,> 10000,> 10000,> 10000,> 10000,> 10000,–,> 10,> 10,> 10000,> 10,> 10,1120,3710
O=c1[nH]c(=O)n([C@H]2C[C@H](O)[C@@H](CO)O2)cc1F [Floxuridine],1.48,127,53.4,37.9,123,752,> 10,–,> 10,253,0.729,3.23,101,173
O=C1CCC(N2C(=O)c3ccccc3C2=O)C(=O)N1 (stereo not given) [Thalidomide],> 10,> 10000,> 10000,> 10000,–,> 10000,> 10,> 10,> 10,–,> 10,> 10,> 10000,–
Cn1nnc2c(C(N)=O)ncn2c1=O [Temozolomide],–,> 10000,> 10000,> 10000,–,> 10000,> 100,> 10,> 10,> 10000,> 10,> 10,–,–
COc1cc2c(N3CCN(C(=O)Nc4ccc(OC(C)C)cc4)CC3)ncnc2cc1OCCCN1CCCCC1 [Tandutinib],–,> 1000,> 1000,> 1000,> 1000,> 1000,> 1,> 1,> 1,> 1000,> 1,> 1,> 1000,> 1000
CCS(=O)(=O)c1cccc(-c2cc(C(=O)NC3CCN(C)CC3)c(C)c3[nH]c4ncc(C)cc4c23)c1 [TAK-901],0.15,72.5,122,112,267,111,> 1,0.183,> 1,62.3,0.134,–,63.3,327
CCCCC/C=C/C=C1/C(=O)C=C[C@@H]1C/C=C\CCCC(=O)O [15D-PGJ2],> 3,> 800,> 800,> 800,> 800,> 800,> 3,> 0.8,> 0.8,> 800,> 0.8,> 0.8,> 3000,–
Cc1ccc(C(=O)N(CCCN)[C@@H](c2oc3cc(Cl)ccc3c(=O)c2Cc2ccccc2)C(C)C)cc1,0.00129,> 100,–,> 100,> 100,> 100,> 0.1,> 0.1,> 0.1,> 100,> 0.1,> 0.1,0.94,1.66
C=CC[C@@H]1/C=C(\C)C[C@H](C)C[C@H](OC)[C@H]2O[C@@](O)(C(=O)C(=O)N3CCCC[C@H]3C(=O)O[C@H](/C(C)=C/[C@@H]3CC[C@@H](O)[C@H](OC)C3)[C@H](C)[C@@H](O)CC1=O)[C@H](C)C[C@@H]2OC [Tacrolimus],> 10,> 10000,> 10000,> 10000,–,–,> 10,> 10,> 10,> 10000,> 10,> 10,> 10000,> 10000
CN(Cc1cnc2nc(N)nc(N)c2n1)c1ccc(C(=O)N[C@@H](CCC(=O)O)C(=O)O)cc1 [Methotrexate],> 5,–,27.6,14.9,195,> 5000,> 5,> 5,> 5,314,–,> 5,60.9,89.2
CC(=O)OC[C@H]1O[C@@H]([S-])[C@H](OC(C)=O)[C@@H](OC(C)=O)[C@@H]1OC(C)=O.CCP(CC)CC.[Au+] [Auranofin],0.668,462,449,610,779,387,0.754,0.575,> 2.5,697,–,0.516,805,362
C[C@]12C=CC(=O)C=C1CC[C@@H]1[C@@H]2C(=O)C[C@@]2(C)[C@H]1CC[C@]2(O)C(=O)CO [Prednisone],> 10,> 10000,> 10000,> 10000,> 10000,> 10000,> 10,> 10,> 10,> 10000,> 10,> 10,> 10000,–
N[C@@H](Cc1ccc(N(CCCl)CCCl)cc1)C(=O)O [Melphalan aq],–,> 12500,> 12500,> 12500,> 12500,–,–,> 12.5,> 12.5,> 12500,> 12.5,> 12.5,–,–
CC(C)(C)c1cc(NC(=O)Nc2ccc(-c3cn4c(n3)sc3cc(OCCN5CCOCC5)ccc34)cc2)no1 [Quizartinib],> 1,402,179,–,–,197,> 1,> 1,> 1,> 1000,> 1,> 1,153,–
CN[C@@H](C)C(=O)N[C@H]1CN(C(=O)CC(C)C)CC[C@H]2CC[C@@H](C(=O)NC(c3ccccc3)c3ccccc3)N2C1=O [AT-406],–,> 10000,> 10000,97.2,> 10000,> 10000,> 10,> 10,0.0583,19.9,> 10,> 10,> 10000,–
Cn1cnc2c(F)c(Nc3ccc(Br)cc3F)c(C(=O)NOCCO)cc21 [MEK-162],–,> 1000,124,–,–,–,–,> 1,> 1,> 1000,> 1,> 1,–,–
O=C(c1ccc(C(=O)N2CCC(N3CCCC3)CC2)c(Nc2ccccc2)c1)N1CCC(N2CCCC2)CC1 [UNC1215],–,> 30000,> 30000,> 30000,–,> 30000,> 30,> 30,> 30,–,> 30,> 30,> 30000,–
CCCS(=O)(=O)Nc1ccc(F)c(C(=O)c2c[nH]c3ncc(-c4ccc(Cl)cc4)cc23)c1F [Vemurafenib],3.73,1460,> 10000,1840,> 10000,1740,> 10,> 10,> 10,1170,–,> 10,> 10000,3920
C#Cc1cccc(Nc2ncnc3cc(OCCOC)c(OCCOC)cc23)c1 [Erlotinib],2.1,2310,2310,2060,3130,2360,> 10,> 10,> 10,> 10000,> 10,> 10,1470,1550
C[C@]12C=CC(=O)C=C1CC[C@@H]1[C@@H]2[C@@H](O)C[C@@]2(C)[C@H]1CC[C@]2(O)C(=O)CO [Prednisolone],> 10,> 10000,> 10000,> 10000,–,> 10000,> 10,> 10,> 10,> 10000,> 10,> 10,–,> 10000
CS(=O)(=O)c1ccc(C2=C(c3ccccc3)C(=O)OC2)cc1 [Rofecoxib],> 10,> 10000,> 10000,> 10000,> 10000,> 10000,> 10,> 10,> 10,> 10000,> 10,> 10,> 10000,> 10000
Nc1cccc2c1CN(C1CCC(=O)NC1=O)C2=O (stereo not given) [Lenalidomide],> 100,–,> 10000,> 10000,> 10000,–,> 100,1.87,> 10,> 10000,> 10,> 10,–,–
